Results on eight compounds are retold here after patent US20120093752A1, “Use of Monoamine Oxidase Inhibitors to Improve Epithelial Biology” (priority 2010, published 2012).

The subject of test [1] is follicles in telogen. In words: Telogen Conversion Assay (TCA), visual melanogenesis grade as indicator of hair growth. The test is classed as in vivo, C57Bl/6 mice. Particulars: topical; for hair growth induction in vivo (FIG. 1): compound alone; for hair growth induction in vivo (FIG. 1) / Activity (improved hair growth by inducing anagen): 19 days, C57Bl/6 mice; for timing of hair growth induction: C57BL/6 mice, selegiline 1% or Triac 0.06%, 32 days, FIG. 2. How it is done: The skin color of mice subjected to treatment is graded visually on a scale from zero to four (0=white skin; 1=light gray skin; 2=blue/black spots; 3=large blue/black region; 4=mostly blue/black skin). As a subject transitions from telogen to anagen, the skin color becomes darker.
Triac (0.06%) was administered as a positive control. Animals were scored for hair growth on the basis of melanogenesis during the treatment period.

The subject of another test is MAOB. In words: MAOB production in mice administered hair growth modulators. In kind it is in vivo.
Test [2] relates to follicles in telogen. In words: Hair growth induction (visual melanogenesis grades) in C3H mice. In kind it is in vivo. Particulars: topical, selegiline 1% or Triac 0.06%, 32 days. How it is done: Several MAO inhibitors were tested for the ability to improve hair growth using the Telogen Conversion Assay (TCA) described in, e.g., International Patent Publication No. 2000/73265. […] The skin color of mice subjected to treatment is graded visually on a scale from zero to four (0=white skin; 1=light gray skin; 2=blue/black spots; 3=large blue/black region; 4=mostly blue/black skin). As a subject transitions from telogen to anagen, the skin color becomes darker.
The potential of selegiline to induce hair growth in different mouse strains also was studied. Selegiline (1%) was topically administered to a C3H mice and C57BL/6 mice. Triac (0.06%) was used as a positive control. […] Both strains of mice also responded to the MAO inhibitor; however, the strains responded in a manner consistent with natural inter-strain differences in transitioning to anagen. The telogen phase in C3H mice is longer than telogen in C57BL/6 mice.

“Also recorded” adds a separate entry of the source. Counter-ions that a name gives are not always drawn.

As to `NNCCc1ccccc1` [Phenelzine], the “hair growth induction in vivo (FIG. 1)” value with follicles in telogen [1] was “induced significant hair growth”. The “Activity (improved hair growth by inducing anagen)” value (from here on “Activity”) with follicles in telogen [1] (dose 0.5%) is “YES”.
As to `O=C(O)Cc1cc(I)c(Oc2ccc(O)c(I)c2)c(I)c1` [Triac, Triiodothyroacetic Acid], the “timing of hair growth induction” value in the test on follicles in telogen [1] and with follicles in telogen [2] (FIG. 2) was “hair growth was induced at the same time for both mouse strains; also recorded: induced hair growth simultaneously” in each case. Also, in the test on MAOB (C3H mice, 0.06%), the MAOB levels result is given as “Reduced MAOB levels”.
With `C#CCN[C@@H]1CCc2ccccc21` [Rasagiline mesylate], the “hair growth induction in vivo (FIG. 1)” value in the test on follicles in telogen [1] is on record as “Robust hair growth induction”. The “Activity” value in the test with follicles in telogen [1] (dose 1%) was “YES”.
Take `C[C@]12CCC(=O)C[C@@H]1CC[C@@H]1[C@@H]2CC[C@]2(C)[C@@H](O)CC[C@@H]12` [DHT, dihydrotestosterone]: the MAOB levels entry in the test with MAOB (C57Bl/6 mice, 12.5 mg/day subcutaneous continuous release pellet) is given as “increased greater than two fold”.
In the case of `C#CCN(C)CCCOc1ccc(Cl)cc1Cl` [Clorgiline], the “hair growth induction in vivo (FIG. 1)” value in the test on follicles in telogen [1] is given as “induced significant hair growth”. In addition, in the test with follicles in telogen [1] (dose 1%), the “Activity” value is on record as “YES”.
As to `NCCNC(=O)c1ccc(Cl)cn1` [Lazabemide], the “hair growth induction in vivo (FIG. 1)” value in the test with follicles in telogen [1] is listed as “not shown to induce hair growth alone”.
For `C#CCN(C)Cc1ccccc1` [Pargyline HCL], the “hair growth induction in vivo (FIG. 1)” value in the test on follicles in telogen [1] was “induced significant hair growth”. Further, the “Activity” value in the test on follicles in telogen [1] (dose 1%) was “YES”.
As to `C#CCN(C)[C@H](C)Cc1ccccc1` [Selegiline Hydrochloride], the “timing of hair growth induction” value with follicles in telogen [1] (Hydrochloride) is reported as “induced hair regrowth significantly earlier; also recorded: initiated hair growth significantly sooner than treatment with vehicle”; in the test on follicles in telogen [2] (FIG. 2, Hydrochloride), “induced hair regrowth significantly earlier; also recorded: initiated hair growth significantly sooner than treatment with vehicle”. For the same compound, in the test on follicles in telogen [1], the “hair growth induction in vivo (FIG. 1)” value is reported as “Robust hair growth induction”. In addition, the “Activity” value with follicles in telogen [1] (dose 1%) is listed as “YES”.
